The ED50 is the dose at which the effect has come halfway, by size or by number of responders. A word on the LD50: it is the dose at which mortality reaches 50%. A lower LD50 goes with a more toxic substance.

Results on ten molecules are retold here after US4695568A, “Thieno[2,3-d]pyrimidine derivatives and salts thereof” (Mitsubishi Chemical Industries Limited, priority 1984, dated 1987).

Like-named read-outs stand apart in the source and are kept apart here.

The test system of data set [1] is reserpine-induced hypothermia. The data set can be described thus: Antagonistic activity against reserpine-induced hypothermia. The following applies: Mus musculus, po, read-out: ED50 (dose exhibiting 50% antagonistic activity against reserpine hypothermia). In kind it is in vivo, ddY male mice. The protocol:
A. ANTAGONISTIC ACTIVITY AGAINST RESERPINE-INDUCED HYPOTHERMIA
A test was carried out using ddY male mice of 22-25 g in body weight, one group consisting of 6 mice.
The body temperature of mice was approximately 38° C. before the test. At 4 hours after intraperitoneal administration of reserpine in an amount of 5 mg/kg the body temperature of mice was reduced by approximately 8° C. in average. The test compound was simultaneously orally administered with 5 mg/kg of reserpine, and the degree of antagonistic effect of the test compound on the hypothermal action of reserpine was measured. This test has hitherto been the commonest method for evaluating anti-depressant activity.
Percentage (%) of an antagonistic activity was calculated by varying the doses of each test compound.

Data set [2] is described as follows: Acute toxicity (LD50) in male mice. The following applies: mouse, in vivo, po.
Data set [3] has as its system passive avoidance response failure by electric shock. As to the kind of experiment: Passive avoidance response failure by electric shock as model of amnesia. In kind it is in vivo. Conditions: p.o., male Wistar rats, 3 hours or more after oral administration. The source says:
B. PASSIVE AVOIDANCE RESPONSE FAILURE BY ELECTRIC SHOCK AS MODEL OF AMNESIA
The test apparatus used, called as "Two Compartment Avoidance Box", consisted of a large lit compartment and a small dark compartment having a grid floor to which an electric current can be applied, these two compartments being painted black innerly and connected to each other
Male Wistar rats of 170-220 g in body weight enter into the small box soon after they are introduced into the large box. […] This response is called as "passive avoidance response".
However, if an electric shock of 60 mA, 200 Hz for 0.8 second is given to the rat by electrodes set on both ears of the rat immediately after the rat comes out of the small box upon the application of the electric current, the "passive avoidance response" is inhibited. Indeed, the period for entering into the small box from the large box, latency, is shortened. This phenomenon is caused by loss of memory of the electric current applied from the grid floor by the electric shock. The shortened time of latency is used as an index of the loss of memory.
A memory improvement effect of a test compound is expressed in the degree of prolongation of latency (% improvement) in a test carried out 3 hours or more after the oral administration of the test compound after application of an electric shock.

[4] abbreviates: mice, test compound orally, simultaneously with reserpine 5 mg/kg, body temperature at 4 hours, Litchfield-Wilcoxon method.

For the molecule `CN(C)CCC=C1c2ccccc2CCc2ccccc21` [Amitriptyline, reference compound], in data set [1] (4 h), the median effective dose (ED50) turned out to be 14.5 mg/kg. The same molecule registered a median lethal dose (LD50) in data set [2] (male mice) of 380 mg/kg.
Consider `Cc1cc2c(-c3ccccc3)nc(N3CCNCC3)nc2s1` [Example 1, 6-METHYL-4-PHENYL-2-PIPERAZINYLTHIENO[2,3-d]PYRIMIDINE], for which the ED50 in data set [1] (setting [4]) worked out at 2 mg/kg. The molecule further came in with an LD50 in data set [2] of 1170 mg/kg. The “Improvement (prolongation of latency)” value in data set [3] (25 mg/kg) was 6.8%; in data set [3] (100 mg/kg), 22.7%.
Turning to `Cc1sc2nc(N3CCNCC3)nc(-c3ccccc3)c2c1C` [Example 4, 5,6-dimethyl-4-phenyl-2-piperazinyl-thieno[2,3-d]pyrimidine], the ED50 in data set [1] (setting [4]) stood at 1.8 mg/kg. Besides, the LD50 in data set [2] (male mice) is 1330 mg/kg.
Regarding `Cc1csc2nc(N3CCNCC3)nc(-c3ccccc3)c12` [Example 5, 5-methyl-4-phenyl-2-piperazinyl-thieno[2,3-d]pyrimidine], the ED50 in data set [1] (setting [4]) stood at 4 mg/kg. Moreover, in data set [2] (male mice), the LD50 stood at 275 mg/kg.
With `Clc1cc2c(-c3ccccc3)nc(N3CCNCC3)nc2s1` [Example 7, 6-chloro-4-phenyl-2-piperazinyl-thieno[2,3-d]pyrimidine], the ED50 in data set [1] (setting [4]) amounted to 2.4 mg/kg.
On to `Cc1cc2c(-c3ccccc3F)nc(N3CCNCC3)nc2s1` [Example 14], for which, in data set [1] (setting [4]), the ED50 was determined as 0.27 mg/kg. The molecule further displayed a 50% lethal dose (LD50) in data set [2] of 1110 mg/kg. Further, the figures for the “Improvement (prolongation of latency)” value in data set [3] (25 mg/kg) and in data set [3] (100 mg/kg) were 30.9% and 51.5%, respectively.
Consider `Cc1cc2c(-c3ccccc3Br)nc(N3CCNCC3)nc2s1` [Example 15], for which, in data set [1] (setting [4]), the 50% effective dose (ED50) is 2.9 mg/kg. Further, in data set [2], the LD50 came to 1750 mg/kg.
Turning to `Cc1cc2c(-c3ccccc3C)nc(N3CCNCC3)nc2s1` [Example 16], the ED50 in data set [1] (setting [4]) is 0.5 mg/kg. Further, the LD50 in data set [2] stood at 1400 mg/kg. Further, the “Improvement (prolongation of latency)” value in data set [3] (25 mg/kg) was 12.8%; in data set [3] (100 mg/kg) it was 46.6%.
On to `Cc1cc2c(-c3ccccc3C#N)nc(N3CCNCC3)nc2s1` [Example 20], for which, in data set [1] (setting [4]), the ED50 is 1.5 mg/kg. This molecule also yielded an LD50 in data set [2] of 370 mg/kg.
As for `NC(=O)CN1CCCC1=O` [Piracetam, reference compound], the “Improvement (prolongation of latency)” value was 22.0% in data set [3] (250 mg/kg) and 14.1% in data set [3] (500 mg/kg).
